The experiment has as its target T1, Full length human TNNI3K (hTNNI3K) (Homo sapiens, UniProt Q59H18).
T1 construct: His-MBP-TEV-Full length human TNNI3K (hTNNI3K); His (N); MBP (N); TEV cleavage site (N); made in house; host or cells: baculovirus system (printed 'Baculokinase system')
T1 sequence (Q59H18 1-835): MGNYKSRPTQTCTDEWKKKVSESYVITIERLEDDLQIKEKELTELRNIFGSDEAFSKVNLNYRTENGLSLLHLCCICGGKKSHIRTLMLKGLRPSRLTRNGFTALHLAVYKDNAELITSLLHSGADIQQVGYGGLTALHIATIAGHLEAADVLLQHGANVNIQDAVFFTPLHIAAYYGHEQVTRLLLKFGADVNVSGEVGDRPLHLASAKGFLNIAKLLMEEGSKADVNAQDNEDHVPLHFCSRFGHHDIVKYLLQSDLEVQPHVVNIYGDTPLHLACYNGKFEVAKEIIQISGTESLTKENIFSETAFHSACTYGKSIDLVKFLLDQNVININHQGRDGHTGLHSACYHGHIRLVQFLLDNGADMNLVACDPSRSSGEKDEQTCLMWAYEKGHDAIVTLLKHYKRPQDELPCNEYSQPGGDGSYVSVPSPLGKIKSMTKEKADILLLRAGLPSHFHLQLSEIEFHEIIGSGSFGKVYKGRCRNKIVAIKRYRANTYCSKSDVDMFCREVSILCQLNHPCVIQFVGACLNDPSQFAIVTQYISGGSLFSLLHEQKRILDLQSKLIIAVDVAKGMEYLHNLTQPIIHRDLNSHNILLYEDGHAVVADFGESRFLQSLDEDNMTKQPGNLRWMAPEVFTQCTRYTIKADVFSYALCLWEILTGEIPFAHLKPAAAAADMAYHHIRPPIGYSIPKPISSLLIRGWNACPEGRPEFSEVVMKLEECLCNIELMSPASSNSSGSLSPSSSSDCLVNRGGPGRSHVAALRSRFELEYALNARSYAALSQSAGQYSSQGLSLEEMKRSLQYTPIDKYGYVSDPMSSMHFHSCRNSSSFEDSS
Kind of experiment: Fluorescent polarization assay of compound inhibition on hTNNI3K ATP binding (Biological Assay Method I). The note with it: displacement of fluorescent ligand from hTNNI3K ATP binding pocket; mean of a minimum of 2 experiments; read-out: pXC50 (the source's name) (converted). The text has this:
Materials: His-MBP-TEV-Full length human TNNI3K (hTNNI3K) was expressed in Baculokinase system and purified from amylase affinity column followed by Superdex200. The fluorescent ligand 5-({[2-({[3-({4-[(5-hydroxy-2-methylphenyl)amino]-2-pyrimidinyl}amino)phenyl]carbonyl}amino)ethyl]amino}carbonyl)-2-(6-hydroxy-3-oxo-3H-xanthen-9-yl)benzoic acid was used. The preparation of this fluorescent ligand is disclosed in U.S. Provisional Patent Application No. 61/237,815 filed Aug. 28, 2009, the disclosure of which is incorporated by reference herein. The other buffer components, including MgCl2 (Catalog Number M1028), Bis-Tris (Catalog Number B7535), DTT (Catalog Number D9779) and Chaps (Catalog Number C3023) were purchased from Sigma-Aldrich.
Biological Assay Method I:
A fluorescent polarization assay was used to determine does response of compound inhibition on hTNNI3K ATP binding.
Solution 1: Ten (10) mL of a 5 nM 5-({[2-({[3-({4-[(5-hydroxy-2-methylphenyl)amino]-2-pyrimidinyl}amino)phenyl]carbonyl}amino)ethyl]amino}carbonyl)-2-(6-hydroxy-3-oxo-3H-xanthen-9-yl)benzoic acid solution (Solution 1) was prepared by mixing 5 μL of 1M DTT and 80 μL of 10% (w/v) Chaps and 5 μL of a 10 μM 5-({[2-({[3-({4-[(5-hydroxy-2-methylphenyl)amino]-2-pyrimidinyl}amino)phenyl]carbonyl}amino) ethyl]amino}carbonyl)-2-(6-hydroxy-3-oxo-3H-xanthen-9-yl)benzoic acid stock solution into 9910 μL buffer (20 mM Tris, 15 mM MgCl2, pH 7.5). (Stock solution: 10 μM solution of 5-({[2-({[3-({4-[(5-hydroxy-2-methylphenyl)amino]-2-pyrimidinyl}amino)phenyl]carbonyl}amino)ethyl]amino}carbonyl)-2-(6-hydroxy-3-oxo-3H-xanthen-9-yl)benzoic acid in 100% DMSO)
Solution 2 was formed by mixing 53.8 μL of 2.6 μM hTNNI3K with a 6946.2 μL aliquot of Solution 1 (the above 5-({[2-({[3-({4-[(5-hydroxy-2-methylphenyl)amino]-2-pyrimidinyl}amino)phenyl]carbonyl}amino)ethyl]amino}carbonyl)-2-(6-hydroxy-3-oxo-3H-xanthen-9-yl)benzoic acid solution) to make up a 7 mL of mixture of hTNNI3K and 5-({[2-({[3-({4-[(5-hydroxy-2-methylphenyl)amino]-2-pyrimidinyl}amino)phenyl]carbonyl}amino)ethyl]amino}carbonyl)-2-(6-hydroxy-3-oxo-3H-xanthen-9-yl)benzoic acid (Solution 2).
Fifty (50) nL of inhibitors in DMSO (or DMSO controls) were stamped into a 384-well low volume Greiner black plate, followed by addition of 5 μL of Solution 1 to column 18 and 5 μL Solution 2 to columns 1-17 and 19-24 of the plate. The plate was then spun at 500 rpm for 30 seconds and incubated at room temperature for 60 minutes. After that, the fluorescent polarization was measured on Analyst (ex/em: 485/530 nm, Dichroic: 505). For dose response experiments, normalized data were fit by ABASE/XC50 and pXC50=(log((b−y)/(y−a)))/d−log(x), where x is the compound concentration and y is the % activity at specified compound concentration, a is the minimum % activity, b is the maximum % activity, and d is the Hill slope.
The pXC50s are averaged to determine a mean value, for a minimum of 2 experiments.

Molecules are shown by their SMILES. Where “and” joins values, the source holds several entries; their conditions need not be identical. Equal values may be shown once. Where a name gives a salt, the structure may show the parent alone.

On to `CNS(=O)(=O)c1ccc(OC(C)C(F)(F)F)c(Nc2ncnc3cc(OC)cc(OC)c23)c1` (centres unmarked) [Example 49, 3-{[5,7-bis(methyloxy)-4-quinazolinyl]amino}-N-methyl-4-[(2,2,2-trifluoro-1-methylethyl)oxy] benzenesulfonamide trifluoroacetate], for which the IC50 is 0.001 to 0.01 µM. As for `CNS(=O)(=O)c1cc(Nc2ncnc3cc(OC)cc(OC)c23)c(OCC(F)(F)F)cc1F` [Example 50, 5-{[5,7-bis(methyloxy)-4-quinazolinyl]amino}-2-fluoro-N-methyl-4-[(2,2,2-trifluoroethyl)oxy] benzenesulfonamide trifluoroacetate], the figure is 0.01 to 0.1 µM; as for `CNS(=O)(=O)c1cc(Nc2ncnc3cc(OC)cc(OC)c23)c(OC)cc1F` [Example 51, 5-{[5,7-bis(methyloxy)-4-quinazolinyl]amino}-2-fluoro-N-methyl-4-(methyloxy) benzenesulfonamide trifluoroacetate], 0.01 to 0.1 µM; as for `CNS(=O)(=O)c1ccc(SC)c(Nc2ncnc3cc(OC)cc(OC)c23)c1` [Example 53, 3-{[5,7-bis(methyloxy)-4-quinazolinyl]amino}-N-methyl-4-(methylthio) benzenesulfonamide hydrochloride], 0.01 to 0.1 µM. As for `CNS(=O)(=O)c1ccc(OC(F)(F)F)c(Nc2ncnc3cc(OC)cc(OC)c23)c1` [Example 54, 3-{[5,7-bis(methyloxy)-4-quinazolinyl]amino}-N-methyl-4-[(trifluoromethyl)oxy] benzenesulfonamide hydrochloride], the figure is 0.001 to 0.01 µM; as for `CNS(=O)(=O)c1ccc(OC(F)(F)F)c(Nc2ncnc3cc(OC)c(OC)c(OC)c23)c1` [Example 55, N-methyl-4-[(trifluoromethyl)oxy]-3-{[5,6,7-tris(methyloxy)-4-quinazolinyl]amino}benzene sulfonamide trifluoroacetate], 0.01 to 0.1 µM. The value for `CNS(=O)(=O)c1cc(Nc2ncnc3cc(OC)cc(OC)c23)c(N(C)C)cc1F` [Example 56, 5-{[5,7-bis(methyloxy)-4-quinazolinyl]amino}-4-(dimethylamino)-2-fluoro-N-methylbenzenesulfonamide hydrochloride] was 0.001 to 0.01 µM.

For `CNS(=O)(=O)c1cc(Nc2ncnc3cc(OC)c(OC)c(OC)c23)c(OCC(F)(F)F)cc1F` [Example 58, 2-fluoro-N-methyl-4-[(2,2,2-trifluoroethyl)oxy]-5-{[5,6,7-tris(methyloxy)-4-quinazolinyl]amino}benzene sulfonamide trifluoroacetate], the IC50 was 0.01 to 0.1 µM. On to `CNS(=O)(=O)c1ccc(Cl)c(Nc2ncnc3cc(OC)c(OC)c(OC)c23)c1` [Example 59, 4-chloro-N-methyl-3-{[5,6,7-tris(methyloxy)-4-quinazolinyl]amino}benzene sulfonamide trifluoroacetate], for which the IC50 is 0.01 to 0.1 µM. As for `CNS(=O)(=O)c1ccc(OCC(F)(F)F)c(Nc2ncnc3cc(OC)cc(OCCOC)c23)c1` [Example 60, N-methyl-3-[(7-(methyIoxy)-5-{[2-(methyloxy)ethyl]oxy}-4-quinazolinyl)amino]-4-[(2,2,2-trifluoroethyl)oxy]benzene-sulfonamide hydrochloride], the figure is 0.01 to 0.1 µM; as for `CNS(=O)(=O)c1ccc(OCC(F)(F)F)c(Nc2ncnc3cc(OC)cc(OC4CCOCC4)c23)c1` [Example 61, N-methyl-3-{[7-(methyloxy)-5-(tetrahydro-2H-pyran-4-yloxy)-4-quinazolinyl]amino}-4-[(2,2,2-trifluoroethyl)oxy] benzenesulfonamide], 0.01 to 0.1 µM.

With `CNS(=O)(=O)c1ccc(OC(C)C(F)(F)F)c(Nc2ncnc3cc(OC)c(OC)c(OC)c23)c1` (centres unmarked) [Example 62, N-methyl-4-[(2,2,2-trifluoro-1-methylethyl)oxy]-3-{[5,6,7-tris(methyloxy)-4-quinazolinyl]amino}benzene sulfonamide trifluoroacetate], the IC50 is 0.001 to 0.01 µM. For `CCOc1cc(OC)cc2ncnc(Nc3cc(S(=O)(=O)NC)ccc3OC(F)(F)F)c12` [Example 64, 3-{[5-(ethyloxy)-7-(methyloxy)-4-quinazolinyl]amino}-N-methyl-4-[(trifluoromethyl)oxy] benzenesulfonamide], the IC50 is 0.01 to 0.1 µM. The value for `CNS(=O)(=O)c1ccc(OC(F)(F)F)c(Nc2ncnc3cc(OC)cc(OC(C)C)c23)c1` [Example 65, N-methyl-3-{[5-[(1-methylethyl)oxy]-7-(methyloxy)-4-quinazolinyl]amino}-4-[(trifluoromethyl)oxy] benzenesulfonamide] was 0.01 to 0.1 µM. As for `CCOc1cc(OC)cc2ncnc(Nc3cc(S(=O)(=O)NC)ccc3OC(C)C(F)(F)F)c12` (centres unmarked) [Example 66, 3-{[5-(ethyloxy)-7-(methyloxy)-4-quinazolinyl]amino}-N-methyl-4-[(2,2,2-trifluoro-1-methylethyl)oxy] benzenesulfonamide], the IC50 is 0.001 to 0.01 µM.

Consider `CNS(=O)(=O)c1ccc(OC(C)C(F)(F)F)c(Nc2ncnc3cc(OC)cc(OC(C)C)c23)c1` (centres unmarked) [Example 67, N-methyl-3-{[5-[(1-methylethyl)oxy]-7-(methyloxy)-4-quinazolinyl]amino}-4-[(2,2,2-trifluoro-1-methylethyl)oxy] benzenesulfonamide], for which the IC50 is 0.01 to 0.1 µM. As for `CNS(=O)(=O)c1ccc(S(C)(=O)=O)c(Nc2ncnc3cc(OC)c(OC)cc23)c1` [Example 68, 3-{[6,7-bis(methyloxy)-4-quinazolinyl]amino}-N-methyl-4-(methylsulfonyl) benzenesulfonamide trifluoroacetate], the IC50 is 0.001 to 0.01 µM and ~0.00398 µM.

Regarding `CNS(=O)(=O)c1ccc(OC(C)C(F)(F)F)c(Nc2ncnc3cc(OC)c(OC)cc23)c1` (centres unmarked) [Example 69, 3-{[6,7-bis(methyloxy)-4-quinazolinyl]amino}-N-methyl-4-[(2,2,2-trifluoro-1-methylethyl)oxy] benzenesulfonamide], the IC50 was 0.01 to 0.1 µM. The value for `CNS(=O)(=O)c1ccc(OCC(F)(F)F)c(Nc2ncnc3cc(OC)c(I)cc23)c1` [Example 70, 3-{[6-iodo-7-(methyloxy)-4-quinazolinyl]amino}-N-methyl-4-[(2,2,2-trifluoroethyl)oxy] benzenesulfonamide] was 0.01 to 0.1 µM. For `CCOc1cc2ncnc(Nc3cc(S(=O)(=O)NC)ccc3OCC(F)(F)F)c2cc1OCC` [Example 71, 3-{[6,7-bis(ethyloxy)-4-quinazolinyl]amino}-N-methyl-4-[(2,2,2-trifluoroethyl)oxy] benzenesulfonamide], the IC50 is 0.001 to 0.01 µM.

(Values after US8859571B2, “Quinazoline compounds” (GlaxoSmithKline LLC, priority 2009, dated 2014).)
